Measurements taken from patent publication US20230189807A1, “COMPOSITIONS HAVING PESTICIDAL UTILITY AND PROCESSES RELATED THERETO” (priority 2020, published 2023).
Like-named read-outs stand apart in the source and are kept apart here.

Key:
Format in all cases: in vivo
[1] = system: Western Flower Thrips (Frankliniella occidentalis, FRANOC); assay: Bioassay 3: Western Flower Thrips, cotton leaf disc dip; details: foliar, 72 h; for pest or weed control at 0.0003125 %: AI alone 0.0003125 % (w/v); for pest or weed control at 7.8e-05 %: read-out: Average % Control AI; for pest or weed control at 0.005 %: AI alone 0.005 % (w/v)
Method: Stock solutions of Formula One and various active ingredients were prepared initially at a concentration of 8 mg/mL for Formula One and 1 mg/mL for the active ingredients, respectively, using acetone as a diluent. Stock solutions were prepared with Formula One as well as for each of the active ingredients individually. Test solutions were prepared from the stock solutions. Test solutions were prepared containing Formula One, the individual active ingredients, and mixtures of Formula One with each of the active ingredients. The test solution for Formula One was prepared by adding 500 μL of the stock solution to a 25 mL glass vial, then adding 500 μL of acetone, followed by the addition of 9 mL water with 0.025% Tween® 20 to create a 0.04% (w/v) solution. The test solutions of the individual active ingredients were prepared by adding 500 μL of stock solution to a 25 mL glass vial, then adding 500 μL of acetone, followed by the addition of 9 mL water with 0.025% Tween® 20 to create a 0.005% (w/v) solution. The test solutions containing mixtures of Formula One and the individual active ingredients were prepared by adding 500 μL of the active ingredient stock solution to a 25 mL glass vial, followed by 500 μL of the Formula One stock solution, then by the addition of 9 mL water with 0.025% Tween® 20 to create a test solution containing 0.04% (w/v) Formula One and 0.005% (w/v) of the active ingredient. Each test solution was serially diluted to create desired doses of test solutions (0.005% (w/v), 0.00125% (w/v), 0.0003125% (w/v), 0.000078% (w/v), and 0.0000195% (w/v)). In test solutions containing mixtures of Formula One and the active ingredients, the active ingredients were diluted as described above, but the Concentration of Formula One was held constant (0.04% (w/v)).
The test solutions were tested against WFT using the following procedure: Leaf discs (2.7 cm in diameter) were cut from the true leaves of cotton plants. Leaf discs were dipped into the test solutions and shaken to ensure complete coverage of the leaf disc and then placed in Millipore® PetriSlides containing a filter paper disc. Treated leaf discs were air dried for approximately 1 hour. Each leaf disc was infested with 5 WFT (9-10 day old nymphs) by placement on each leaf disc, and the PetriSlides were capped to prevent escape. Each treatment was replicated three times and the test treatments were held at approximately 26° C. and ambient relative humidity (RH) prior to grading. Reference discs (solvent check) were treated with the diluent only. Evaluation was conducted by counting the number of live WFT under magnification 3 days after treatment. Percent control was measured using Abbott's correction formula (W. S. Abbott, J. Econ. Entomol. 18 (1925), pp. 265-267) as follows:
(§1) Corrected % Control=(1−(Y/X))*100
where X=No. of live nymphs on solvent check leaf discs and Y=No. of live nymphs on treated leaf discs. In Table B3 the “Expected % Control” was calculated using the method described in Colby S. R., Weeds, 1967, 15, 20-22. Bioassay 4: Western Tarnished Plant Bug (Lygus hesperus, LYGUHE) (“WTPB”).

[2] = system: Neotropical Brown Stink Bug (Euschistus heros, EUSCHE); assay: Bioassay 5: Neotropical Brown Stink Bug, soaked green bean segments; details: 72 h; for pest or weed control at 0.000625 %: AI alone 0.000625 % (w/v); for pest or weed control at 0.000156 % / pest or weed control at 0.0025 %: read-out: Average % Control AI
Method: Stock solutions were prepared with Formula One as well as for each of the active ingredients individually. Test solutions were prepared from the stock solutions. Test solutions were prepared containing Formula One, the individual active ingredients, and mixtures of Formula One with each of the active ingredients. The test solution for Formula One was prepared by adding 500 μL of the stock solution to a 25 mL glass vial, then adding 500 μL of acetone, followed by the addition of 9 mL water with 0.025% Tween® 20 to create a 0.04% (w/v) solution. The individual active ingredients were prepared by adding 500 μL of stock solution to a 25 mL glass vial, then adding 500 μL of acetone, followed by the addition of 9 mL water with 0.025% Tween® 20 to create a 0.005% (w/v) solution. The test solutions containing mixtures of Formula One and the individual active ingredients were prepared by adding 500 μL of the active ingredient stock solution to a 25 mL glass vial, followed by 500 μL of the Formula One stock solution, then by the addition of 9 mL water with 0.025% Tween® 20 to create a test solution containing 0.04% (w/v) Formula One and 0.005% (w/v) of the active ingredient. Each test solution was serially diluted to create desired doses of test solutions (0.01% (w/v), 0.0025% (w/v), 0.000625% (w/v), 0.000156% (w/v), and 0.000039% (w/v)). In test solutions containing mixtures of Formula One and the active ingredients, the active ingredients were diluted as described above, but the Concentration of Formula One was held constant (0.04% (w/v)).
The test solutions that were tested against BSB were similar to those described above for WTPB. Fresh green beans were cut into segments approximately 1.5 inches long. Four bean segments were added to each test solution and soaked for approximately 15 minutes. After soaking, a single bean fragment was removed and placed into a single well of a 32-well rearing tray (Frontier Agricultural Sciences™), on top of a round filter paper disc. A reference treatment (solvent check) was treated with the diluent only. Each treatment was replicated four times and the test treatments were held at approximately 26° C. and ambient relative humidity (RH) prior to grading. Bean segments were allowed to air dry for ˜30 minutes. Three BSB nymphs were added to and contained in each well with a clear perforated adhesive lid. The total number of living BSB nymphs was recorded 3 days after application. Scoring was based off the total number of living nymphs out of all four replicates. Percent control was measured using Abbott's correction formula (W. S. Abbott, J. Econ. Entomol. 18 (1925), pp. 265-267) as follows:
as §1
where X=No. of live nymphs on solvent check and Y=No. of live nymphs on treated bean segments. In Table B5 the “Expected % Control” was calculated using the method described in Colby S. R., Weeds, 1967, 15, 20-22. Bioassay 6: Beet Armyworm (Spodoptera exigua, LAPHEG) (BAW), and Diamondback Moth (Plutella xylostella, PLUTMA) (DBM).

[3] = system: Green Peach Aphid (Myzus persicae, MYZUPE); assay: Bioassay 1: Green Peach Aphid, cabbage seedling foliar spray; details: 3 days after treatment
Method: The stock solutions were prepared with Formula One as well as for each of the active ingredients individually. Test solutions were prepared from the stock solutions. Test solutions were prepared containing Formula One, the individual active ingredients, and mixtures of Formula One with each of the active ingredients. The test solutions for Formula One and the individual active ingredients were prepared by adding 750 microliters (μL) of stock solution to a 25 mL glass vial, then adding 750 μL of 1:1 acetone:methanol solvent, followed by the addition of 13.5 mL water with 0.025% Tween® 20 to create a 0.0005% (weight/volume (w/v)) solution. The test solutions containing mixtures of Formula One and the individual active ingredients were prepared by adding 750 μL of the active ingredient stock solution to a 25 mL glass vial, followed by 750 μL of the Formula One stock solution, then by the addition of 13.5 mL water with 0.025% Tween® 20 to create a test solution containing 0.0005% (w/v) Formula One and 0.0005% (w/v) of the active ingredient. Each test solution was serially diluted to create desired doses of test solutions (0.0005% (w/v), 0.000125% (w/v), 0.00003125% (w/v), 0.0000078% (w/v), 0.00000195% (w/v), and 0.0000005% (w/v)).
The test solutions were tested against GPA using the following procedure: Cabbage seedlings, grown in 3 inch pots with 2-3 small (3-5 centimeter (cm)) true leaves, were used as test substrate. The seedlings were infested with 20-50 GPA (wingless adult and nymph stages) one day prior to chemical application. Four pots with individual seedlings were used for each treatment. A hand-held aspirator-type sprayer was used for spraying a solution to both sides of […] leaves until runoff. Reference plants (solvent check) were sprayed with the diluent only (0.025% Tween® 20 and 10% acetone:methanol (1:1) in water). Treated plants were held in a holding room for three days at approximately 25° C. and ambient relative humidity (RH about 20% to about 45%) prior to grading. Evaluation was conducted by counting the number of live aphids per plant under a microscope three days after treatment. Percent control was measured using Abbott's correction formula (W. S. Abbott, J. Econ. Entomol. 18 (1925), pp. 265-267) as follows:
as §1
where X=No. of live aphids on solvent check plants and Y=No. of live aphids on treated plants. In Table B1 the “Expected % Control” was calculated using the method described in Colby S. R., Weeds, 1967, 15, 20-22. Bioassay 2: Sweet Potato Whitefly (Bemisia tabaci, BEMITA) (“SPW”).

[4] = cotton leaf disc dip, 3 days after treatment
[5] = soaked bean segments, 3 days after application
[6] = AI alone 0.000078 % (w/v), cotton leaf disc dip, 3 days after treatment
[7] = AI alone 0.000156 % (w/v), soaked bean segments, 3 days after application
[8] = AI alone 0.0025 % (w/v), soaked bean segments, 3 days after application

Molecule: O=[N+]([O-])NC1=NCCN1Cc1ccc(Cl)nc1 [Imidacloprid]
- pest or weed control at 0.0003125 % [1, 4]: 0%
- pest or weed control at 0.000625 % [2, 5]: 17%

Molecule: CCOC(=O)OC1=C(c2cc(C)ccc2C)C(=O)N[C@]12CC[C@@H](OC)CC2 [Spirotetramat]
- Average % Control A1 ([3]; AI alone 0.05x10^-5 % (w/v)): 15%
- pest or weed control at 7.8e-05 % [1, 6]: 7%

Molecule: CN/C(=N/CC1CCOC1)N[N+](=O)[O-] (stereo not shown) [Dinotefuran]
- pest or weed control at 0.000156 % [2]: 17%

Molecule: C/C(=N\C#N)N(C)Cc1ccc(Cl)nc1 [Acetamiprid]
- Average % Control A1 ([3]; AI alone 0.78x10^-5 % (w/v)): 24%
- pest or weed control at 0.0003125 % [1, 4]: 13%

Molecule: Cc1c(COC(=O)[C@@H]2[C@H](/C=C(\Cl)C(F)(F)F)C2(C)C)cccc1-c1ccccc1 (racemic) [Bifenthrin]
- Average % Control A1 ([3]; AI alone 0.78x10^-5 % (w/v)): 52%
- pest or weed control at 0.000156 % [2, 7]: 30%

Molecule: CNC(=O)O/N=C(\SC)C(=O)N(C)C [Oxamyl]
- pest or weed control at 0.0003125 % [1, 4]: 0%

Molecule: CC[S+]([O-])c1c(C#N)nn(-c2c(Cl)cc(C(F)(F)F)cc2Cl)c1N (stereo not shown) [Ethiprole]
- Average % Control A1 ([3]; AI alone 3.125x10^-5 % (w/v)): 0%
- pest or weed control at 0.005 % [1, 4]: 0%
- pest or weed control at 3.91e-05 % ([2]; AI alone 0.0000391 % (w/v), soaked bean segments, 3 days after application): 0%

Molecule: CON=CNC(=O)c1ccc(C2=NOC(c3cc(Cl)cc(Cl)c3)(C(F)(F)F)C2)cc1C (stereo not shown) [Fluxametamide]
- Average % Control A1 ([3]; AI alone 12.5x10^-5 % (w/v)): 0%

Molecule: Emamectin Benzoate
- Average % Control A1 ([3]; AI alone 3.125x10^-5 % (w/v)): 21%

Molecule: CN1COCN(Cc2cnc(Cl)s2)/C1=N\[N+](=O)[O-] [Thiamethoxam]
- pest or weed control at 7.8e-05 % [1, 6]: 7%
- pest or weed control at 0.000156 % [2, 7]: 17%

Molecule: CC(COc1ccc(Oc2ccccc2)cc1)Oc1ccccn1 (stereo not shown) [Pyriproxyfen]
- pest or weed control at 0.00125 % ([1]; AI alone 0.00125 % (w/v), cotton leaf disc dip, 3 days after treatment): 17%

Molecule: COc1cccc(C(=O)NN(C(=O)c2cc(C)cc(C)c2)C(C)(C)C)c1C [Methoxyfenozide]
- Average % Control A1 ([3]; AI alone 0.195x10^-5 % (w/v)): 5%

Molecule: CC1(C)[C@H](C(=O)O[C@H](C#N)c2cccc(Oc3ccccc3)c2)[C@@H]1/C=C(\Cl)C(F)(F)F (racemic) [Lambda Cyhalothrin]
- Average % Control A1 ([3]; AI alone 0.78x10^-5 % (w/v)): 40%
- pest or weed control at 0.0003125 % [1, 4]: 7%
- pest or weed control at 0.000625 % [2, 5]: 8%

Molecule: CC(c1ccc(C(F)(F)F)nc1)S(C)(=O)=NC#N (stereo not shown) [Sulfoxaflor]
- pest or weed control at 0.0025 % [2, 8]: 58%

Molecule: COP(=O)(NC(C)=O)SC (stereo not shown) [Acephate]
- pest or weed control at 7.8e-05 % [1]: 5%
- pest or weed control at 0.0025 % [2]: 0%

Molecule: CNC(=O)c1cc(Cl)cc(C)c1NC(=O)c1cc(Br)nn1-c1ncccc1Cl [Chlorantraniliprole]
- pest or weed control at 0.005 % [1, 4]: 7%

Molecule: CCOCn1c(-c2ccc(Cl)cc2)c(C#N)c(Br)c1C(F)(F)F [Chlorfenapyr]
- pest or weed control at 0.005 % [1, 4]: 57%
- pest or weed control at 0.0025 % [2, 8]: 8%
